{"source": "ChEMBL document CHEMBL5696441", "about": "(Nat Chem Biol, 2011)", "key": {"[1]": {"biological_target": "Receptor tyrosine-protein kinase erbB-4 (Homo sapiens) (UniProt Q15303)", "assay": "Inhibition of ERBB4 (unknown origin) assessed as remaining activity at 1 uM by Kinome scan method relative to control"}, "[2]": {"biological_target": "Mast/stem cell growth factor receptor Kit (Homo sapiens) (UniProt P10721)", "sequence (P10721 whole entry)": "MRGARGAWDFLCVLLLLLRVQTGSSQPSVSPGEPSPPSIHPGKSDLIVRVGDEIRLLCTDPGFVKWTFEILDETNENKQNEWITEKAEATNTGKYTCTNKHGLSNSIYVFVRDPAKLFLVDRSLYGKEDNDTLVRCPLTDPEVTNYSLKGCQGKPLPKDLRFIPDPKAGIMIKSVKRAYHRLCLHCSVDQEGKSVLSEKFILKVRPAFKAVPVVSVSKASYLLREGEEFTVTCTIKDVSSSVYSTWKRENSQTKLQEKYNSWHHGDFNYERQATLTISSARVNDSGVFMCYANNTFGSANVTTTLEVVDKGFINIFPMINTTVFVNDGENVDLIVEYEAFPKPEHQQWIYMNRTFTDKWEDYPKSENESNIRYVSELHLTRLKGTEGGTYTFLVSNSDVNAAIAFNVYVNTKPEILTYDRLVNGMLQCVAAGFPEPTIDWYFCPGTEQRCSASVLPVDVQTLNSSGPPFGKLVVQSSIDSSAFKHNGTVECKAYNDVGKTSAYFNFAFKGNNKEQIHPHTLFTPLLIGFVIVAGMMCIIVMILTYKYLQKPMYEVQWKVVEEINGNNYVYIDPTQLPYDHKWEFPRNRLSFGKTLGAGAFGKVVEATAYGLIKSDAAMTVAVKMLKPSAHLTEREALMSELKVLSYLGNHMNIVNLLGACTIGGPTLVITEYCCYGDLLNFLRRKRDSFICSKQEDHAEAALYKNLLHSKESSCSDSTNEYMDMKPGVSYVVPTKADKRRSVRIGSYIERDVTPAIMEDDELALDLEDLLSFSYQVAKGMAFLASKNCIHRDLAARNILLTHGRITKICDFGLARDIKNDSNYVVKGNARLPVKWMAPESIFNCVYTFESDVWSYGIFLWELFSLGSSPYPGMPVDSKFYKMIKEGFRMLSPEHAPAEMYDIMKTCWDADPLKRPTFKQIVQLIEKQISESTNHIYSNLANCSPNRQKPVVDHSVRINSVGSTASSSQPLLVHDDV", "assay": "Inhibition of human KIT assessed as residual activity at 1 uM using polyEY as substrate in presence of 33P-ATP by ProQinase assay relative to control"}, "[3]": {"biological_target": "Calcium/calmodulin-dependent protein kinase type II subunit beta (Homo sapiens) (UniProt Q13554)", "sequence (Q13554 whole entry)": "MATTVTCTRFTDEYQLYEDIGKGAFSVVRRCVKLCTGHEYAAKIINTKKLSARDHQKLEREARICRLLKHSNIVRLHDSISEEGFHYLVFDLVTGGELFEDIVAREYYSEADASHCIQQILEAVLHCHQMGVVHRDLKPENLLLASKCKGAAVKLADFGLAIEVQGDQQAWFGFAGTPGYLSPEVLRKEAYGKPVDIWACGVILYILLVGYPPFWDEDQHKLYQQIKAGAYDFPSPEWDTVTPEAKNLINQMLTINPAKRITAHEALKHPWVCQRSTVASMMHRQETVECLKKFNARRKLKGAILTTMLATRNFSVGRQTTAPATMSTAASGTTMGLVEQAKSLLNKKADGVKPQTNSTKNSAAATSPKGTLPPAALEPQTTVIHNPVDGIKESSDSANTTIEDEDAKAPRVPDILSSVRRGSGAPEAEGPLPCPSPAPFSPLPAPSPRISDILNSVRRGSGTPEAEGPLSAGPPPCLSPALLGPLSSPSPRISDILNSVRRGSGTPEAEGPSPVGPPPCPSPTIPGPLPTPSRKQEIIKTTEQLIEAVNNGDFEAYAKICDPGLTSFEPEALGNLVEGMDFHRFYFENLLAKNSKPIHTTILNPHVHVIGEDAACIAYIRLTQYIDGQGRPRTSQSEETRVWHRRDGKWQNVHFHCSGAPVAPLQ", "assay": "Inhibition of human CAMK2B assessed as residual activity at 1 uM using RBER-CHKtide as substrate in presence of 33P-ATP by ProQinase assay relative to control"}, "[4]": {"biological_target": "Mitogen-activated protein kinase kinase kinase 9 (Homo sapiens) (UniProt P80192)", "sequence (P80192 whole entry, looked up)": "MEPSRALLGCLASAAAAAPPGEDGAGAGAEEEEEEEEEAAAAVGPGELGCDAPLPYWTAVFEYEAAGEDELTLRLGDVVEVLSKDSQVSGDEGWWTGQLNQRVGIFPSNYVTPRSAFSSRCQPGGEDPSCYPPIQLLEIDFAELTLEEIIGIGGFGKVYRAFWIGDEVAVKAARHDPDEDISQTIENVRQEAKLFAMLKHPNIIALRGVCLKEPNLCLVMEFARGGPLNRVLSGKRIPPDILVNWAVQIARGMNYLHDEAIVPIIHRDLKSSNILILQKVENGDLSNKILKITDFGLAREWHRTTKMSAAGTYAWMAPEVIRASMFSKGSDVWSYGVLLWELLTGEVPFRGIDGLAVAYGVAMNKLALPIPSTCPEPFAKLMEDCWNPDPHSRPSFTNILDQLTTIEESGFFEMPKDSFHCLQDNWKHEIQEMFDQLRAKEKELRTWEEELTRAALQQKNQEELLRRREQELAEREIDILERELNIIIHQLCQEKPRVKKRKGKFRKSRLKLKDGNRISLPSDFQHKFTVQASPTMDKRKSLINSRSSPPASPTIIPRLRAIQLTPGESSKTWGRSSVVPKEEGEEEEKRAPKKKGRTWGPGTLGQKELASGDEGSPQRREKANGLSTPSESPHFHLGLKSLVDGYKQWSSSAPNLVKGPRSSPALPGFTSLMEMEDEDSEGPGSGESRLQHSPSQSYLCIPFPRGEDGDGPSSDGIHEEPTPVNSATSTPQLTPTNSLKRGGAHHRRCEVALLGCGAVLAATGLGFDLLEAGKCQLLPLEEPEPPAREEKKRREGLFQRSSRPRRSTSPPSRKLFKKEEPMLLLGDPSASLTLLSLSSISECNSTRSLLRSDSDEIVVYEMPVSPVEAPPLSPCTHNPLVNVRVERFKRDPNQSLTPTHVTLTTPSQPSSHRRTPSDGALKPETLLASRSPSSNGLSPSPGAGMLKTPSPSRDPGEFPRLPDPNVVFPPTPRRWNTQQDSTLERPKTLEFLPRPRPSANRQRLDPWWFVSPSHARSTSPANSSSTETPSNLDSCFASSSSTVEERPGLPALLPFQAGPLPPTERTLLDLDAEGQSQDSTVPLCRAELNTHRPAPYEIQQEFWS", "assay": "Inhibition of human MAP3K9 assessed as residual activity at 1 uM using RBER-GSK3 as substrate in presence of 33P-ATP by ProQinase assay relative to control"}, "[5]": {"tested_on": "Receptor-type tyrosine-protein kinase FLT3 (Homo sapiens), P36888 [K663Q]", "assay": "Inhibition of FLT3 K663Q mutant (unknown origin) assessed as remaining activity at 1 uM by Kinome scan method relative to control"}, "[6]": {"tested_on": "Tyrosine-protein kinase ABL1 (Homo sapiens), P00519 [G250E]", "assay": "Inhibition of human ABL1 G250E mutant assessed as residual activity at 1 uM using Poly(Ala,Glu,Lys,Tyr)6:2:5:1 as substrate in presence of 33P-ATP by ProQinase assay relative to control"}, "[7]": {"assay": "Anti-inflammatory activity against human derived high respond PBMC cells assessed as inhibition in stimulated INFgamma cytokine release incubated for 2 hrs in the presence of LPS/SEB/aCD28 by Luminex based sandwich immunoassay", "type": "functional, cell-based"}, "[8]": {"tested_on": "Epidermal growth factor receptor (Homo sapiens), P00533 [G719S]", "assay": "Inhibition of EGFR G719S mutant (unknown origin) assessed as remaining activity at 1 uM by Kinome scan method relative to control"}, "[9]": {"biological_target": "Serine/threonine-protein kinase TAO1 (Homo sapiens) (UniProt Q7L7X3)", "assay": "Inhibition of TAOK1 (unknown origin) assessed as remaining activity at 1 uM by Kinome scan method relative to control"}, "[10]": {"tested_on": "Platelet-derived growth factor receptor alpha (Homo sapiens), P16234 [D842V]", "assay": "Inhibition of human PDGFRalpha D842V mutant assessed as residual activity at 1 uM using Poly(Ala,Glu,Lys,Tyr)6:2:5:1 as substrate in presence of 33P-ATP by ProQinase assay relative to control"}, "[11]": {"biological_target": "T1, Serine/threonine-protein kinase D1 (Homo sapiens) (UniProt Q15139)", "T1 sequence (whole entry)": "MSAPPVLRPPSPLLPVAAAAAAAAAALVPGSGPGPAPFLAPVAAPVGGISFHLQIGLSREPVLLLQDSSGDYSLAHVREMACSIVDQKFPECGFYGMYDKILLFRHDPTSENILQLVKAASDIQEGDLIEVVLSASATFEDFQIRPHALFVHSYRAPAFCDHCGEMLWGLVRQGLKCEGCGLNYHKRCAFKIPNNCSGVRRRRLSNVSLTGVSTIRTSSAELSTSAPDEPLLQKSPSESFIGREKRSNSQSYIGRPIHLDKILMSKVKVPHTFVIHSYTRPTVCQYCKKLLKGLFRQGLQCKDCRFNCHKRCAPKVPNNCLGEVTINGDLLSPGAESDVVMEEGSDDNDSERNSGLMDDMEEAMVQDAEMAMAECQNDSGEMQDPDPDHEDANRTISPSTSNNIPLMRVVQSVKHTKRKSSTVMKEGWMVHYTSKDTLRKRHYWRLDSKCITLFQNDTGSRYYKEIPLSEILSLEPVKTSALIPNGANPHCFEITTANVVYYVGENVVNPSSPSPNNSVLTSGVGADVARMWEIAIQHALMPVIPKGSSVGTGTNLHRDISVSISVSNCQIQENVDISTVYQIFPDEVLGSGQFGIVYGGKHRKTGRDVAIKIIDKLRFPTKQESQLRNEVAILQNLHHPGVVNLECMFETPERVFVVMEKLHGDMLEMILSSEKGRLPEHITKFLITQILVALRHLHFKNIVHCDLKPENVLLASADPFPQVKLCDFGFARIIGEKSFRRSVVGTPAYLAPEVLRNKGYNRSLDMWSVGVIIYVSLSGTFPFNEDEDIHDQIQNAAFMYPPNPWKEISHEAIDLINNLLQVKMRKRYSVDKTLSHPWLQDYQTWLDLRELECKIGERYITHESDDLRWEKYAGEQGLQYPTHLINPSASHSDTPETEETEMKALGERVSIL", "assay": "Inhibition of human PKCmu assessed as residual activity at 1 uM using RBER-CHKtide as substrate in presence of 33P-ATP by ProQinase assay relative to control"}, "[12]": {"biological_target": "Serine/threonine-protein kinase Sgk2 (Homo sapiens) (UniProt Q9HBY8)", "sequence (Q9HBY8 whole entry)": "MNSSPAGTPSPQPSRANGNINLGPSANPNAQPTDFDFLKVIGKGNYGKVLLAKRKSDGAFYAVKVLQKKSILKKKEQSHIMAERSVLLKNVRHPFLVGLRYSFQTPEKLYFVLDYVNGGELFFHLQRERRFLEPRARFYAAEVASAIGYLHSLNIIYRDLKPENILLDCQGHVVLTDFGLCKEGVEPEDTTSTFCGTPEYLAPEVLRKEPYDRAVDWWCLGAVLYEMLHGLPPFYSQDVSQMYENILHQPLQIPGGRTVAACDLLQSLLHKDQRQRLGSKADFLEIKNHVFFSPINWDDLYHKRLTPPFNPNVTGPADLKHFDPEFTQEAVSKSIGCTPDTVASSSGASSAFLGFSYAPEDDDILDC", "assay": "Inhibition of human SGK2 assessed as residual activity at 1 uM using RBER-GSK3(14-27) as substrate in presence of 33P-ATP by ProQinase assay relative to control"}, "[13]": {"biological_target": "Receptor-interacting serine/threonine-protein kinase 2 (Homo sapiens) (UniProt O43353)", "sequence (O43353 whole entry)": "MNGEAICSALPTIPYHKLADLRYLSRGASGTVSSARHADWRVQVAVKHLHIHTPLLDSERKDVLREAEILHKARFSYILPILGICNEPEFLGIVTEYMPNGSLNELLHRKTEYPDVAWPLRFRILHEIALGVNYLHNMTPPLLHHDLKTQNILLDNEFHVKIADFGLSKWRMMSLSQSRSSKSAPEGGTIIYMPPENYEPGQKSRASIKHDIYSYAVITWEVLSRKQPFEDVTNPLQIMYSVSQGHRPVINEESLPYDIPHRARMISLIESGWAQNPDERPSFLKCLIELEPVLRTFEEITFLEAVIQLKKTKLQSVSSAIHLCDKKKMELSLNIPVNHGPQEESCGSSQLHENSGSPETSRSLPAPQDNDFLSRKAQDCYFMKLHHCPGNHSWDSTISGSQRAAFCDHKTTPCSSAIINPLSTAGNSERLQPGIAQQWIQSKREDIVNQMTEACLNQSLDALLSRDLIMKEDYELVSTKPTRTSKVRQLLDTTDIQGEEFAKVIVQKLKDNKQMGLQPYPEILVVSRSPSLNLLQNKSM", "assay": "Inhibition of human RIPK2 assessed as residual activity at 1 uM using RBER-CHKtide as substrate in presence of 33P-ATP by ProQinase assay relative to control"}, "[14]": {"biological_target": "Dual specificity protein kinase TTK (Homo sapiens) (UniProt P33981)", "sequence (P33981 whole entry)": "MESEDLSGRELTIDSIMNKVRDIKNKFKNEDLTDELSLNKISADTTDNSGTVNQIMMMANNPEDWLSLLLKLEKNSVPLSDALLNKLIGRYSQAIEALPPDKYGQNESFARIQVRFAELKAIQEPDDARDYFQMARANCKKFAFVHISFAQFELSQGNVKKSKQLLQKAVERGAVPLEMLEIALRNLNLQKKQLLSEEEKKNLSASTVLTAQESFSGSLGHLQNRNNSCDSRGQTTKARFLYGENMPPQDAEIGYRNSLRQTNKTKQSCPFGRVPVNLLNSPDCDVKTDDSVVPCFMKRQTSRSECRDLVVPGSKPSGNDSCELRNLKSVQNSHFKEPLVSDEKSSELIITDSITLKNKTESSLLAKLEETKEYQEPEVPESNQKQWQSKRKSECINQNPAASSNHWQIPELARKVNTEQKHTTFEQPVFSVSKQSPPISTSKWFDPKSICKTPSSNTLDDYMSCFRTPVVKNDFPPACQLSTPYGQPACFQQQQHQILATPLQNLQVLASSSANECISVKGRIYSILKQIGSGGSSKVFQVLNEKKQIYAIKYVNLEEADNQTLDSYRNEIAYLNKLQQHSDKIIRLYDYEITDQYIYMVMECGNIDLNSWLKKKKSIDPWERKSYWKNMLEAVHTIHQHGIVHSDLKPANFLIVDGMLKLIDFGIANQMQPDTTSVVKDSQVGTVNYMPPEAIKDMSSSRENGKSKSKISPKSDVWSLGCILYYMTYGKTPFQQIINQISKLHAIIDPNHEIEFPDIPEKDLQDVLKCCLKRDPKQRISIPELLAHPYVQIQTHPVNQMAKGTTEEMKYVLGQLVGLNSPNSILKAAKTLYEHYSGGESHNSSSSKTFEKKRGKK", "assay": "Inhibition of human TTK assessed as residual activity at 1 uM using RBER-CHKtide as substrate in presence of 33P-ATP by ProQinase assay relative to control"}, "[15]": {"biological_target": "Mitogen-activated protein kinase 10 (Homo sapiens) (UniProt P53779)", "assay": "Inhibition of JNK3 (unknown origin) assessed as remaining activity at 1 uM by Kinome scan method relative to control"}, "[16]": {"biological_target": "Rhodopsin kinase GRK7 (Homo sapiens) (UniProt Q8WTQ7)", "sequence (Q8WTQ7 whole entry)": "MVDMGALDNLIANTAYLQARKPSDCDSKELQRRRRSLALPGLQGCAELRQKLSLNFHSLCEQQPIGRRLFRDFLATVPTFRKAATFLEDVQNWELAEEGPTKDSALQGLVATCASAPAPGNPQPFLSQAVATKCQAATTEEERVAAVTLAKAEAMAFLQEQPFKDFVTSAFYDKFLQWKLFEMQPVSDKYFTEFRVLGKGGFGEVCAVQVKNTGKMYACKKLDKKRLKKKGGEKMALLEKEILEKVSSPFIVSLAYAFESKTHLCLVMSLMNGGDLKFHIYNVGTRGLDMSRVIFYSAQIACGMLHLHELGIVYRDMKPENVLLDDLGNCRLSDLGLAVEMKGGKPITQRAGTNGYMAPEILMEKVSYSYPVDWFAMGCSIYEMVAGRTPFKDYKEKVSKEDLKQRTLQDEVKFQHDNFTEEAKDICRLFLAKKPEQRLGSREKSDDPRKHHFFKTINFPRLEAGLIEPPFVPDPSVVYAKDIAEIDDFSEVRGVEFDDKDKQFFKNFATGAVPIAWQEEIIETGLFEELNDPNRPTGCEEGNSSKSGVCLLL", "assay": "Inhibition of GRK7 (unknown origin) assessed as remaining activity at 1 uM by Kinome scan method relative to control"}, "[17]": {"tested_on": "Receptor-type tyrosine-protein kinase FLT3 (Homo sapiens), P36888 [UNDEFINED MUTATION]", "assay": "Inhibition of human […] mutant assessed as residual activity at 1 uM using Poly(Ala,Glu,Lys,Tyr)6:2:5:1 as substrate in presence of 33P-ATP by ProQinase assay relative to control"}, "PBMC": {"tested_on": "PBMC", "assay": "Anti-inflammatory activity against human derived medium respond PBMC cells assessed as increase in stimulated IL-12p70 cytokine release at 1 uM incubated for 2 hrs in the presence of LPS/SEB/aCD28 by Luminex based sandwich immunoassay", "type": "functional, cell-based"}}, "note": "Active and inactive are the calls of the source. The calls are words filed in the database; no cut-off is given here.", "data": [{"compound": "O=C1c2ccc(Nc3ccc(F)cc3F)cc2CCc2ccc(OC[C@H](O)CO)cc21", "note": "[Skepinone-L]", "values": [{"measurement": "Activity", "setting": "[1]", "result": 97, "unit": "%"}, {"measurement": "Activity", "setting": "[2]", "result": 111, "unit": "%"}, {"measurement": "Activity", "setting": "[3]", "result": 86, "unit": "%"}, {"measurement": "Activity", "setting": "[4]", "result": 90, "unit": "%"}, {"measurement": "Activity", "setting": "[5]", "result": 98, "unit": "%"}, {"measurement": "Activity", "setting": "[6]", "result": 97, "unit": "%"}, {"measurement": "IC50", "setting": "[7]", "result": 0.06, "unit": "µM"}, {"measurement": "Activity", "setting": "[8]", "result": 94, "unit": "%"}, {"measurement": "Activity", "setting": "[9]", "result": 100, "unit": "%"}, {"measurement": "Activity", "setting": "[10]", "result": 97, "unit": "%"}, {"measurement": "Activity", "setting": "[11]", "result": 92, "unit": "%"}, {"measurement": "Activity", "setting": "[12]", "result": 89, "unit": "%"}, {"measurement": "Activity", "setting": "[13]", "result": 77, "unit": "%"}, {"measurement": "Activity", "setting": "[14]", "result": 83, "unit": "%"}, {"measurement": "Activity", "setting": "[15]", "result": 61, "unit": "%"}, {"measurement": "Activity", "setting": "[16]", "result": 100, "unit": "%"}, {"measurement": "Activity", "setting": "[17]", "result": 101, "unit": "%"}, {"measurement": "Activity", "setting": "PBMC", "result": "Active"}]}]}
